Experimental data reported in PubChem BioAssay (NCI).
Values after ≈ are worked out from the molar mass of the structure shown. Values joined by “and” are separate entries in the source; they are usually repeats but may differ in a detail not shown here. Equal entries are not always repeated.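 Values below derive from 48-hour exposures of cells grown in 96-well plates, with endpoints linearly interpolated between the two concentrations bracketing the appropriate inhibition level. Abbreviation: GI50, concentration required for 50% inhibition of growth. TGI denotes the concentration required for complete inhibition of growth.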 Active and inactive are the calls of the source. Cut-off read from the data, not from the text of the source: active = GI50 below about 0.43 µM; inactive = the rest.

Experiments:
Test in all cases: NCI anticancer screen, dose series, 48 h
A498 renal = test system: A498 renal
DLD-1 colon = test system: DLD-1 colon
DMS 114 small cell lung = test system: DMS 114 small cell lung
HS 578T breast = test system: HS 578T breast
KM20L2 colon = test system: KM20L2 colon
M19-MEL melanoma = test system: M19-MEL melanoma
NCI-H23 lung = test system: NCI-H23 lung
SNB-75 CNS = test system: SNB-75 CNS
LXFL 529 NSCLC = test system: LXFL 529 NSCLC

With `Cc1c[nH]c2c(O)cc3c(c12)[C@H](CCl)CN3C(=O)c1cc2cc(NC(=O)Nc3ccc4[nH]c(C(=O)N5C[C@@H](CCl)c6c5cc(O)c5[nH]cc(C)c65)cc4c3)ccc2[nH]1` the TGI (A498 renal) was 75.7 nM and 15 µM and 0.00215 µg/mL, the GI50 (DLD-1 colon) was 0.000887 ng/mL and 1.4 ng/mL and the GI50 (DMS 114 small cell lung) was 0.000887 ng/mL and 0.888 ng/mL. For the same compound, the GI50 (HS 578T breast) was 0.0252 µM, the outcome (KM20L2 colon) was “inactive” and the GI50 (M19-MEL melanoma) was 1.14 ng/mL (≈ 1.4 nM). The TGI (M19-MEL melanoma) was 3.44 ng/mL.
`C=CCC(N[C@H](CO)c1ccccc1)c1ccc2ccccc2n1` (stereo partly drawn) showed a GI50 (A498 renal) of 29.3 µM, a TGI (A498 renal) of over 100 µM and a GI50 (HS 578T breast) of 22.5 µM. The TGI (HS 578T breast) was over 100 µM, the GI50 (NCI-H23 lung) was over 100 µM and the TGI (NCI-H23 lung) was over 100 µM. For the same compound, the GI50 (SNB-75 CNS) was over 100 µM and the TGI (SNB-75 CNS) was over 100 µM.
For `O=S(=O)(N/N=C/c1ccc(/C=N/NS(=O)(=O)c2ccccc2)cc1)c1ccccc1`, the TGI (A498 renal) was over 100 µM, the TGI (DMS 114 small cell lung) was over 100 µM and the TGI (KM20L2 colon) was over 100 µM. It also gave a TGI (M19-MEL melanoma) of over 100 µM, a TGI (NCI-H23 lung) of 66.8 µM and a TGI (SNB-75 CNS) of over 100 µM.
`CC(=O)CC(=O)Nc1ccc2ccccc2c1` gave a TGI (A498 renal) of over 100 µM, a TGI (HS 578T breast) of over 100 µM and a TGI (NCI-H23 lung) of over 100 µM. For the same compound, the TGI (SNB-75 CNS) was over 100 µM.
Work on `O=[N+]([O-])c1cc(Cl)c(Cl)c([N+](=O)[O-])c1Cl` yielded a GI50 (A498 renal) of 6.4 µM, a TGI (A498 renal) of 20.9 µM and a GI50 (HS 578T breast) of 2.35 µM. For the same compound, the TGI (HS 578T breast) was 7.47 µM, the GI50 (SNB-75 CNS) was 1.47 µM and the TGI (SNB-75 CNS) was 2.81 µM.
`O=C1c2ccccc2C(=O)N1CCCSc1ccccc1` showed a TGI (A498 renal) of over 100 µM, a TGI (HS 578T breast) of over 100 µM and a TGI (NCI-H23 lung) of over 100 µM. For the same compound, the TGI (SNB-75 CNS) was over 100 µM.
`COc1ccccc1N1C(=O)/C(=C/c2ccc(N(CCC#N)CCC#N)cc2C)N=C1c1cc([N+](=O)[O-])ccc1Cl` showed a TGI (A498 renal) of over 100 µM, a TGI (DMS 114 small cell lung) of over 100 µM and a TGI (KM20L2 colon) of over 100 µM. It also gave a TGI (LXFL 529 NSCLC) of over 100 µM, a TGI (M19-MEL melanoma) of 56.3 µM and a TGI (NCI-H23 lung) of over 100 µM. It also gave a TGI (SNB-75 CNS) of over 100 µM.
For `CC(=O)N[C@H]1C=C[C@@H]2/C=C(C)/C=C/[C@@H](C)[C@H]([C@H](C)[C@H](O)[C@@H](C)NC(C)=O)OC(=O)/C=C/C=C(C)\C=C\[C@]2(C)C1`, the GI50 (A498 renal) was 0.0045 µM, the TGI (A498 renal) was 0.0181 µM and the GI50 (HS 578T breast) was 0.0161 µM and 0.0045 µM. The TGI (HS 578T breast) was 4.65 µM and 3.28 µM, the TGI (NCI-H23 lung) was 4.65 µM and > 45 µM and the GI50 (SNB-75 CNS) was 0.00243 µM and 0.0045 µM.
`Cn1c([N+](=O)[O-])cnc1/C=C1\Oc2ccccc2C1=O` was tested, and the GI50 (HS 578T breast) was 1.15 µM, the GI50 (NCI-H23 lung) was 0.37 µM and the TGI (NCI-H23 lung) was 2.61 µM. For the same compound, the GI50 (SNB-75 CNS) was 1.51 µM and the TGI (SNB-75 CNS) was 4.87 µM.
`CC[C@H](NC(=O)[C@H](C)NC)C(=O)N1C[C@@H](O)C[C@H]1Cc1c(-c2[nH]c3cc(F)ccc3c2C[C@@H]2C[C@H](O)CN2C(=O)[C@H](CC)NC(=O)[C@H](C)NC)[nH]c2cc(F)ccc12` gave a GI50 (A498 renal) of over 100 µM, a TGI (A498 renal) of over 100 µM and a GI50 (HS 578T breast) of over 23.7 µM. For the same compound, the TGI (HS 578T breast) was over 100 µM, the GI50 (NCI-H23 lung) was over 65.3 µM and the TGI (NCI-H23 lung) was over 100 µM. For the same compound, the GI50 (SNB-75 CNS) was 2.65 µM and the TGI (SNB-75 CNS) was over 100 µM.
Compound `ClCc1cccc(Cn2cnc3c(NC45CC6CC(CC(C6)C4)C5)ncnc32)c1` has a GI50 (A498 renal) of 15.4 µM, a TGI (A498 renal) of 31.7 µM and a GI50 (HS 578T breast) of 23.4 µM. For the same compound, the TGI (HS 578T breast) was 68.2 µM, the GI50 (NCI-H23 lung) was 19.6 µM and the TGI (NCI-H23 lung) was 46.4 µM. The GI50 (SNB-75 CNS) was 17.4 µM and the TGI (SNB-75 CNS) was 43.1 µM.
With `CCCCc1c2c(nc3c1CCC/C3=C\c1ccccc1)C(=O)CCC2` the TGI (A498 renal) was 61.4 µM, the TGI (DMS 114 small cell lung) was 41.7 µM and the TGI (KM20L2 colon) was 41.7 µM. For the same compound, the TGI (LXFL 529 NSCLC) was over 100 µM, the TGI (M19-MEL melanoma) was 34.4 µM and the TGI (NCI-H23 lung) was 58.7 µM. For the same compound, the TGI (SNB-75 CNS) was 84.5 µM.
For `Cn1ccnc1CC(C)(O)c1ccccc1` (stereo not drawn), the TGI (A498 renal) was over 100 µM, the TGI (HS 578T breast) was over 100 µM and the TGI (NCI-H23 lung) was over 100 µM. For the same compound, the TGI (SNB-75 CNS) was over 100 µM.
`COc1ccc([N+](=O)[O-])c2c(NCCCN(C)C)c3ccccc3nc12` was tested, and the TGI (A498 renal) was 0.0733 µM, the TGI (HS 578T breast) was 4.29 µM and the TGI (NCI-H23 lung) was 0.402 µM. The TGI (SNB-75 CNS) was 0.802 µM.
Compound `Cc1nc2sc(C(=O)Nc3cccc(Cl)c3C)c(N)c2cc1C(=O)/C=C/c1ccccc1` has a GI50 (A498 renal) of 0.298 µM, a TGI (A498 renal) of 1.4 µM and a GI50 (HS 578T breast) of 0.38 µM. For the same compound, the TGI (HS 578T breast) was over 13.5 µM, the GI50 (NCI-H23 lung) was 0.755 µM and the TGI (NCI-H23 lung) was 2.44 µM. For the same compound, the GI50 (SNB-75 CNS) was 0.217 µM and the TGI (SNB-75 CNS) was 5.45 µM.
`CC(C)CS(=O)(=O)/C(=C(\c1ccc(Br)cc1)S(=O)(=O)CC(C)C)c1ccc(Br)cc1` was tested, and the TGI (A498 renal) was 31.6 µM, the TGI (DLD-1 colon) was over 100 µM and the TGI (KM20L2 colon) was over 100 µM. The TGI (LXFL 529 NSCLC) was over 100 µM, the TGI (M19-MEL melanoma) was over 100 µM and the TGI (NCI-H23 lung) was over 100 µM. The TGI (SNB-75 CNS) was over 100 µM.
Compound `CCN(CC)CCC(=O)NC1c2ccc(Cl)cc2Oc2c(C)cccc21` (stereo not drawn) has a TGI (NCI-H23 lung) of 31.5 µM and a TGI (SNB-75 CNS) of 22.5 µM.
For `COc1cc(Nc2nccc(Nc3ccc4c(C)[nH]nc4c3)n2)cc(OC)c1OC`, the GI50 (A498 renal) was 0.253 µM, the TGI (A498 renal) was 1.94 µM and the GI50 (HS 578T breast) was 0.604 µM. For the same compound, the TGI (HS 578T breast) was 5.15 µM, the GI50 (NCI-H23 lung) was 2.51 µM and the TGI (NCI-H23 lung) was 7.82 µM. It also gave a GI50 (SNB-75 CNS) of 0.486 µM and a TGI (SNB-75 CNS) of 3.22 µM.
`NOCC(=O)O` was tested, and the GI50 (A498 renal) was over 100 µM, the TGI (A498 renal) was over 100 µM and the GI50 (HS 578T breast) was 71.1 µM. It also gave a TGI (HS 578T breast) of over 100 µM, a GI50 (NCI-H23 lung) of over 100 µM and a TGI (NCI-H23 lung) of over 100 µM. It also gave a GI50 (SNB-75 CNS) of over 100 µM and a TGI (SNB-75 CNS) of over 100 µM.
`CCC1(CC)C(=O)OC(=O)C1(CC)CC` was tested, and the TGI (A498 renal) was over 100 µM, the TGI (HS 578T breast) was over 100 µM and the TGI (NCI-H23 lung) was over 100 µM. The TGI (SNB-75 CNS) was over 100 µM.
For `O=C(/C=C/c1ccc(F)cc1)c1ccc(Cl)cc1Cl`, the GI50 (A498 renal) was over 100 µM, the TGI (A498 renal) was over 100 µM and the GI50 (HS 578T breast) was 54.3 µM. The TGI (HS 578T breast) was over 100 µM, the GI50 (NCI-H23 lung) was 37.2 µM and the TGI (NCI-H23 lung) was over 100 µM.
`COc1ccc(CN(C)c2ccc(CO)c(Cl)c2)cc1` gave a GI50 (A498 renal) of 0.0416 µM, a TGI (A498 renal) of 0.178 µM and a GI50 (HS 578T breast) of 38.4 µM. The TGI (HS 578T breast) was over 100 µM, the GI50 (NCI-H23 lung) was 12.9 µM and the TGI (NCI-H23 lung) was over 100 µM. It also gave a GI50 (SNB-75 CNS) of 23.5 µM and a TGI (SNB-75 CNS) of over 90.7 µM.
Work on `O=c1c2c(nc3n1CCS3)[nH]c1ccccc12` yielded a GI50 (A498 renal) of 89.5 µM, a TGI (A498 renal) of over 100 µM and a GI50 (HS 578T breast) of 73.6 µM. For the same compound, the TGI (HS 578T breast) was over 100 µM, the GI50 (NCI-H23 lung) was over 100 µM and the TGI (NCI-H23 lung) was over 100 µM. It also gave a GI50 (SNB-75 CNS) of 30.5 µM and a TGI (SNB-75 CNS) of over 100 µM.
`COC(=O)c1s/c(=N\C(=S)N(C)C)n(-c2ccccc2)c1C(=O)OC` showed a TGI (A498 renal) of over 100 µM, a TGI (DMS 114 small cell lung) of over 100 µM and a TGI (KM20L2 colon) of over 100 µM. For the same compound, the TGI (M19-MEL melanoma) was over 100 µM, the TGI (NCI-H23 lung) was over 100 µM and the TGI (SNB-75 CNS) was over 100 µM.
In the case of `O=C1c2ccccc2-c2cccc3ccc(Cc4ccc5ccccc5c4)c1c23`, the TGI (DLD-1 colon) is reported as over 100 µM, the TGI (KM20L2 colon) is reported as over 100 µM and the TGI (M19-MEL melanoma) is reported as over 100 µM. It also gave a TGI (NCI-H23 lung) of over 100 µM and a TGI (SNB-75 CNS) of over 100 µM.
In the case of `COc1ccc(-c2onc(-c3ccc([N+](=O)[O-])cc3)c2C2=NCCN2)cc1`, the TGI (DLD-1 colon) is reported as over 100 µM, the TGI (KM20L2 colon) is reported as over 100 µM and the TGI (LXFL 529 NSCLC) is reported as over 100 µM. The TGI (M19-MEL melanoma) was over 100 µM, the TGI (NCI-H23 lung) was over 100 µM and the TGI (SNB-75 CNS) was 44 µM.
For `COc1cc2c(cc1OCCCOc1cc3c(cc1OC)C(=O)N1C[C@H](F)C[C@H]1C=N3)N=C[C@@H]1C[C@@H](F)CN1C2=O`, the GI50 (NCI-H23 lung) was 5.83 µM and the TGI (NCI-H23 lung) was 17.8 µM.
For `CC(C)(C#N)c1cc(Cn2cncn2)cc(C(C)(C)C#N)c1`, the GI50 (HS 578T breast) was 289 µM, the TGI (HS 578T breast) was over 10000 µM and the GI50 (NCI-H23 lung) was over 10000 µM. For the same compound, the TGI (NCI-H23 lung) was over 10000 µM, the GI50 (SNB-75 CNS) was over 10000 µM and the TGI (SNB-75 CNS) was over 10000 µM.
